Experimental data from patent US20260274819A1, “ULK1 INHIBITOR, PREPARATION METHOD THEREFOR AND USE THEREOF” (DOVETREE MEDICINES UNUS, INC., priority 2023, published 2026).

Columns and labels:
ULK1 = target: T1, ULK1 (Homo sapiens, UniProt O75385); assay: Inhibition of ULK1 protein activity (ADP-Glo method); type: biochemical; conditions: ULK1 enzyme, ATP and MBP substrate, 60 min room temperature
T1 construct: purchased Promega V3521
T1 sequence (O75385 1-649 limits assumed): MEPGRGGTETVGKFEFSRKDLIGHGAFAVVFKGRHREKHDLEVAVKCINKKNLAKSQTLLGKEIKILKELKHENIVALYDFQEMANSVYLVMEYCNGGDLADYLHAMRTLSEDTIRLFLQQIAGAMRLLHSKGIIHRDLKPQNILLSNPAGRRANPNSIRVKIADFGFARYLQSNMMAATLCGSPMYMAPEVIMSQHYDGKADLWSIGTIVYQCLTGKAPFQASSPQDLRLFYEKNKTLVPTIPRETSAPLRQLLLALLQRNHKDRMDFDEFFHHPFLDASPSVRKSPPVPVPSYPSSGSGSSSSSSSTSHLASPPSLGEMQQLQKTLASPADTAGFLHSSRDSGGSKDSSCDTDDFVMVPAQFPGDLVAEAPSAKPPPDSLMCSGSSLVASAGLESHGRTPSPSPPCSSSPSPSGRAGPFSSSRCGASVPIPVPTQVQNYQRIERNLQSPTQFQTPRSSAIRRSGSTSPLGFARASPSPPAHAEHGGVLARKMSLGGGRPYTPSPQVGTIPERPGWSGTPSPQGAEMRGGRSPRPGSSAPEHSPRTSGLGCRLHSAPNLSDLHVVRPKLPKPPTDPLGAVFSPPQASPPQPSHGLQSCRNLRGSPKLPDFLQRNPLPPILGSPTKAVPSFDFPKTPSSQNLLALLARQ
Experimental: In this experiment, the inhibitory effect of a compound on the phosphorylation function of ULK1 was detected by ADP-Glo method. The inhibitory effect of the compound of the present disclosure on the ULK1 target was evaluated based on IC50.
Compound formulation: Using an ECHO (Beckman, ECHO650), the compound was serially diluted 3-fold in DMSO in a 384-well plate (PE, 6007290). A total of 10 concentration points were set, with the maximum concentration of the compound being 10 μM, and 50 nL per well. Positive control wells and negative control wells were added with 50 nL DMSO, respectively.
Reaction process: A 32 nM of ULK1 (Promega, V3521) solution was formulated, and 2.5 μL/well was transferred to the compound test wells and the negative control wells (NC). 2.5 μL/well of 1× Assay buffer was added to the positive control wells (PC). A mixed solution of 100 μM of ATP and 1.86 μM of MBP was formulated, and 2.5 μL/well was transferred to the reaction plate. After centrifugation, the reaction was initiated and incubated at room temperature for 60 min. After the reaction was completed, 5 μL/well of ADP-Glo Reagent (Promega, V9102) was added to the reaction plate. After centrifugation, the reaction was incubated at room temperature for 40 minutes. Finally, 10 μL/well of Kinase Detection Buffer was added, followed by centrifugation and incubation at room temperature for 30 min. The chemiluminescence value was read using Envision (PE, Envision2105).
Assay buffer: a reaction buffer; and Kinase Detection buffer: a detection buffer, both were taken from the ADP-Glodetection kit, purchased from Promega, model V9102. 3. Data analysis
The inhibition ratio of a compound on ULK1 activity was calculated using the following formula:
Inhibition ratio=(sample signal value−negative control signal value)/(positive control signal value−negative control signal value)×100%. The dose-effect curve was fitted using the log(inhibitor) vs. response -Variable slope of the analysis software GraphPad Prism 8, thereby affording the IC50 value of each compound for enzyme activity.

[1] = test system: HEK293 GFP-LC3 stably transfected cells; assay: Inhibition of autophagy level in HEK293 GFP-LC3 stably transfected cells (autophagic flux); type: cell-based; conditions: Homo sapiens, Torin1 100 nM, 24 h, GFP fluorescence
Experimental: The inhibitory effect of the compound of the present disclosure on intracellular autophagy was evaluated by testing the impact of the compound of the present disclosure on the fluorescence intensity of HEK293 GFP-LC3 stably transfected cells.
HEK293 GFP-LC3 stably transfected cells (HEK293, ATCC, CRL-1573) were cultured in a complete medium, namely, a DMEM medium (Gibco, 11965-092) containing 10% fetal bovine serum (Corning, 35-081-CV), 1% double antibody (Gibco, 15140-122) and 1 μg/mL of Puromycin (Invitrogen-A1113803).
Cell plating: HEK293 GFP-LC3 stably transfected cells at 80% growth confluence were digested, diluted with a medium free of Puromycin, and added to a 96-well cell culture plate (Geriner, 655090) at 12,000 cells per well, with a volume of 90 μL.
Compound incubation: 5 μL of Torin1 and 5 μL of a serially diluted compound were added to each well so that the highest concentration of the compound in the reaction system was 10 μM. 3-fold serial dilution with 8 concentrations was performed, and the final concentration of Torin1 was 100 nM. The DMSO content in the system was 0.1%. The positive control wells (PC) contain DMSO at a final concentration of 0.1%, and the negative control wells (NC) contain 100 nM of Torin1 with 0.1% of DMSO. The reaction plate was placed in an incubator at 37° C. in 5% CO2, and was incubated for 24 h.
Cell staining and fixation: The cell plate was taken out, and 10 μL of Hochest33342 nuclear staining reagent (Thermo, H1399) was added to each well, followed by incubation at 37° C. in 5% CO2 for 30 min. After the incubation was completed, the cell supernatant was discarded, and 100 μL of pre-cooled 4% paraformaldehyde was added to each well to fix the cells for 15 min. Then, the fixative was discarded, and 100 μL of PBS was added to each well. Images were captured for analysis using a high-content cell imaging analyzer (PE, Operetta CLS), and GFP fluorescence signals were collected for data processing.
The average GFP fluorescence signal intensity in the reaction wells was collected for the calculation of the inhibition ratio:
The dose-effect curve was fitted using the log(inhibitor) vs. response -Variable slope of Graphpad Prism8, thereby affording the IC50 value of each compound for inhibiting autophagy level in HEK293 GFP-LC3 stably transfected cells.

[2] = test system: ATG13 phosphorylation level in MIA PaCa-2 cells; assay: Inhibition of ATG13 phosphorylation level in MIA PaCa-2 cells (pATG13 ELISA); type: cell-based; conditions: Homo sapiens, Torin1 100 nM, 24 h incubation, Phospho-Atg13 (ser355)
Experimental: The inhibitory effect of the compound of the present disclosure on ULK1 was evaluated by testing the inhibitory effect of the compound of the present disclosure on ATG13 phosphorylation level in MIA PaCa-2 cells.
MIA PaCa-2 cells (ATCC, CRM-CRL-1420) were cultured in a complete medium, namely, a DMEM medium (Gibco, 11965-092) containing 10% fetal bovine serum (Corning, 35-081-CV), 2.5% horse serum (Gibco, 16050-122) and 1% double antibody (Gibco, 15140-122). The experiments were performed according to the requirements of the kit (Cell Signaling Technology, 17208C).
Cell plating: MIA PaCa-2 at 80% growth confluence were digested, diluted with the complete medium, and added to a 96-well cell culture plate (Costar, 3596) at 20,000 cells per well, with a volume of 90 μL.
Compound incubation: 5 μL of Torin1 and 5 μL of a serially diluted compound were added to each well so that the highest concentration of the compound in the reaction system was 10 μM. 5-fold serial dilution with 8 concentrations was performed, and the final concentration of Torin1 was 100 nM. The DMSO content in the system was 0.1%. The reaction plate was placed in an incubator at 37° C. in 5% CO2, and was incubated for 24 h. 10 μL of Torin1 was added to the negative control wells (NC) to a final concentration of 100 nM, with a DMSO content of 0.1%.
Reaction detection: After the incubation was completed, the cell plate was washed with a pre-cooled DPBS (Corning, 21-031-CVC) to wash away the compound and medium. 50 μL of pre-cooled cell lysis solution was added to each well, incubated on ice for 10 min. The cell plate was centrifuged, and the supernatant was transferred to an ELISA reaction plate. Simultaneously, 50 μL of Phospho-Atg13 (ser355) rabbit detection antibody was added, followed by incubation at room temperature under shaking for 60 min. After the incubation was completed, the reaction plate was washed with a washing solution for 4 times. 100 μL of TMB substrate was added for color development reaction, followed by incubation under shaded conditions with shaking for 15 min. Finally, 100 μL of stop solution was added to each well. The reaction was terminated by shaking for 10 s, and the absorbance value at 450 nm and 560 nm were collected within 10 min using Envision (Perkin Elmer, EnVision 2105).
The inhibition ratio was calculated by subtracting the absorbance value at […] from the absorbance value at 450 nm for each well. The inhibition ratio formula is as follows: inhibition ratio=(sample signal value−negative control signal value)/(positive control signal value -negative control signal value)×100%.
The dose-effect curve was fitted using the log (inhibitor) vs. response -Variable slope of Graphpad Prism8, thereby affording the IC50 value of each compound for inhibiting ATG13 phosphorylation level.

Row | Structure (SMILES) | IC50 (ULK1) | IC50 [1] | IC50 [2]
1 | CN1Cc2cc(Nc3ncc(C(F)(F)F)c(OCCCN4CCCCC4=O)n3)ccc2C2(CC2)C1 [Example 49] | < 100 nM | < 100 nM | < 100 nM
2 | CN1CCN(c2ccc(Nc3ncc(C(F)(F)F)c(OCCCn4cccn4)n3)c(C3CC3)c2)CC1 [Example 29] | < 100 nM | 100 to 1000 nM | 100 to 1000 nM
3 | CN1CCc2cc(Nc3ncc(C(F)(F)F)c(N4CCN(C)C(=O)C4)n3)ccc2C1 [Example 15] | < 100 nM | 100 to 1000 nM | 100 to 1000 nM
4 | CN1CCN(c2ccc(Nc3ncc(C(F)(F)F)c(N[C@H]4CC[C@@H](n5cccn5)CC4)n3)c(C3CC3)c2)CC1 [Example 32] | < 100 nM | > 1000 nM | 100 to 1000 nM
5 | CN1CCN(c2ccc(Nc3ncc(C(F)(F)F)c(N4CCC5(CCN(C)CC5)CC4)n3)c(C3CC3)c2)CC1 [Example 51] | < 100 nM | 100 to 1000 nM | > 1000 nM
6 | CN1CCN(c2ccc(Nc3ncc(C(F)(F)F)c(N4CCC5(CCN(C)C5)CC4)n3)c(C3CC3)c2)CC1 [Example 19] | < 100 nM | 100 to 1000 nM | > 1000 nM
7 | CN1CCN(c2ccc(Nc3ncc(C(F)(F)F)c(N4CCC(n5cccn5)CC4)n3)c(C3CC3)c2)CC1 [Example 14] | < 100 nM | > 1000 nM | < 100 nM
8 | CN1CCN(c2ccc(Nc3ncc(C(F)(F)F)c(N4CC5(CN(C)C5)C4)n3)c(C3CC3)c2)CC1 [Example 24] | < 100 nM | 100 to 1000 nM | 100 to 1000 nM
9 | CN1CCN(c2ccc(Nc3ncc(C(F)(F)F)c(NC4CCN(C(=O)C5CCC5)CC4)n3)c(C3CC3)c2)CC1 [Example 20] | < 100 nM | > 1000 nM | > 1000 nM
10 | CN1CCN(c2ccc(Nc3ncc(C(F)(F)F)c(NCCCn4cccn4)n3)c(C3CC3)c2)CC1 [Example 30] | < 100 nM | > 1000 nM | > 1000 nM
11 | CN1CCN(c2ccc(Nc3ncc(C(F)(F)F)c(N4CCC5(CCN(C)CC5)C4)n3)c(C3CC3)c2)CC1 [Example 53] | < 100 nM | > 1000 nM | 100 to 1000 nM
12 | CN1CCN(c2ccc(Nc3ncc(C(F)(F)F)c(OCCCN4CCCCC4=O)n3)c(C3CC3)c2)CC1 [Example 1] | < 100 nM | 100 to 1000 nM | 100 to 1000 nM
13 | CN1CCN(c2ccc(Nc3ncc(C(F)(F)F)c(N4CCC5(CCN(C)C5)C4)n3)c(C3CC3)c2)CC1 (stereo not drawn) [Example 26] | < 100 nM | > 1000 nM | 100 to 1000 nM
14 | CN1CCN(c2ccc(Nc3ncc(C(F)(F)F)c(N4CCN(C)C(=O)C4)n3)c(C3CC3)c2)CC1 [Example 5] | < 100 nM | > 1000 nM | > 1000 nM
